# Laboratory results from ChEMBL document CHEMBL1201861, “Genomics of Drug Sensitity in Cancer screening data, Wellcome Trust Sanger Institute”.
# pIC50: −log10 of the molar value. Several values for one entry are separate records, joined by “and”; a condition that tells them apart may be missing. Equal entries are not always repeated. Where a SMILES comes first, the peptide text is derived from it. The star is where a group is joined. Cbz = O=C(OCc1ccccc1)*
# Tests used:
# Experiment in all cases: cells
# GI-1 = assay type: functional, cell-based, Homo sapiens;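 also: growth inhibition of human GI-1 cells, measured with a cell viability readout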
# Description: SANGER: Inhibition of human GI-1 cell growth in a cell viability assay.
# NCI-H720 = assay type: functional, cell-based, Homo sapiens;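 also: growth inhibition of human NCI-H720 cells determined by a cell viability assay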
# Description: SANGER: Inhibition of human NCI-H720 cell growth in a cell viability assay.
# LXF-289 cell line = assay type: functional, cell-based; details: Homo sapiens
# Description: SANGER: Inhibition of human LXF-289 cell growth in a cell viability assay.
# 8-MG-BA = assay type: functional, cell-based, Homo sapiens;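 also: growth inhibition of 8-MG-BA cells, read out with a cell viability assay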
# Description: SANGER: Inhibition of human 8-MG-BA cell growth in a cell viability assay.
# KP-N-YS = assay type: functional, cell-based, Homo sapiens;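 also: cell viability assay measuring inhibition of cell line growth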
# Description: SANGER: Inhibition of human KP-N-YS cell growth in a cell viability assay.
# NCI-H1092 = assay type: functional, cell-based, Homo sapiens;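 also: cell growth inhibition measured with a cell viability assay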
# Description: SANGER: Inhibition of human NCI-H1092 cell growth in a cell viability assay.
# SCC-15 = assay type: functional, cell-based, Homo sapiens;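 also: growth inhibition of SCC-15 cells, read out with a cell viability assay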
# Description: SANGER: Inhibition of human SCC-15 cell growth in a cell viability assay.
# HCC2157 = assay type: functional, cell-based, Homo sapiens;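 also: growth inhibition of the cancer cell line, read out as cell viability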
# Description: SANGER: Inhibition of human HCC2157 cell growth in a cell viability assay.
# SW 962 = assay type: functional, cell-based, Homo sapiens;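 also: growth inhibition of human SW962 cells, read out by a cell viability assay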
# Description: SANGER: Inhibition of human SW962 cell growth in a cell viability assay.
# SK-PN-DW = assay type: functional, cell-based, Homo sapiens;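 also: growth inhibition measured with a viability assay on these cells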
# Description: SANGER: Inhibition of human SK-PN-DW cell growth in a cell viability assay.
# TE-5 = assay type: functional, cell-based, Homo sapiens;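 also: inhibition of cell growth, read out by a cell viability assay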
# Description: SANGER: Inhibition of human TE-5 cell growth in a cell viability assay.
# SJSA-1 = assay type: functional, cell-based, Homo sapiens;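 also: growth inhibition of human SJSA-1 cells, read out through a cell viability measurement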
# Description: SANGER: Inhibition of human SJSA-1 cell growth in a cell viability assay.
# EW-18 = assay type: functional, cell-based, Homo sapiens; details: read-out: IC50;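 also: growth inhibition of EW-18 cells, read out by a cell viability assay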
# Description: SANGER: Inhibition of human EW-18 cell growth in a cell viability assay.
# HCC1187 = assay type: functional, cell-based, Homo sapiens;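 also: growth inhibition of HCC1187 cells, read out with a cell viability assay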
# Description: SANGER: Inhibition of human HCC1187 cell growth in a cell viability assay.
# SNB-75 = assay type: functional, cell-based, Homo sapiens;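 also: cell viability assay measuring growth inhibition of human SNB-75 cells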
# Description: SANGER: Inhibition of human SNB75 cell growth in a cell viability assay.
# NCI-H226 = assay type: functional, cell-based, Homo sapiens;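 also: cell viability read-out used to gauge growth inhibition of the cells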
# Description: SANGER: Inhibition of human NCI-H226 cell growth in a cell viability assay.
# NCI-H1355 = assay type: functional, cell-based, Homo sapiens;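 also: growth inhibition of human NCI-H1355 cells, read out by a cell viability assay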
# Description: SANGER: Inhibition of human NCI-H1355 cell growth in a cell viability assay.
# SCH = assay type: functional, cell-based, Homo sapiens;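 also: growth inhibition of human SCH cells, read out in a cell viability assay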
# Description: SANGER: Inhibition of human SCH cell growth in a cell viability assay.
# LB1047-RCC = assay type: functional, cell-based, Homo sapiens;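 also: inhibition of cell growth, determined with a cell viability assay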
# Description: SANGER: Inhibition of human LB1047-RCC cell growth in a cell viability assay.
# no-10 = assay type: functional, cell-based, Homo sapiens;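 also: growth inhibition of no-10 cells, read out with a cell viability assay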
# Description: SANGER: Inhibition of human no-10 cell growth in a cell viability assay.
# MV4-11 = assay type: functional, cell-based, Homo sapiens, MV-4-11;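 also: cell viability readout measuring growth inhibition of human MV-4-11 cells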
# Description: SANGER: Inhibition of human MV-4-11 cell growth in a cell viability assay.
# MHH-NB-11 = assay type: functional, cell-based, Homo sapiens;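 also: growth inhibition of human MHH-NB-11 cells, read out by a cell viability assay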
# Description: SANGER: Inhibition of human MHH-NB-11 cell growth in a cell viability assay.
# TE-9 = assay type: functional, cell-based, Homo sapiens;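 also: cell growth inhibition, measured with a cell viability readout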
# Description: SANGER: Inhibition of human TE-9 cell growth in a cell viability assay.
# NCI-N87 = assay type: functional, cell-based; details: Homo sapiens;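 also: growth inhibition of human NCI-N87 cells, read out with a cell viability assay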
# Description: SANGER: Inhibition of human NCI-N87 cell growth in a cell viability assay.
# HAL-01 = assay type: functional, cell-based, Homo sapiens;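 also: growth inhibition of human HAL-01 cells, read out with a cell viability assay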
# Description: SANGER: Inhibition of human HAL-01 cell growth in a cell viability assay.
# NCI-H526 = assay type: functional, cell-based, Homo sapiens;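 also: growth inhibition of the human NCI-H526 cell line, measured by a cell viability assay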
# Description: SANGER: Inhibition of human NCI-H526 cell growth in a cell viability assay.
# PSN1 = assay type: functional, cell-based, Homo sapiens;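 also: suppression of growth of human PSN1 cells, read out by a cell viability assay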
# Description: SANGER: Inhibition of human PSN1 cell growth in a cell viability assay.
# TGBC1TKB = assay type: functional, cell-based, Homo sapiens;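 also: growth inhibition of TGBC1TKB cells, read out by a cell viability assay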
# Description: SANGER: Inhibition of human TGBC1TKB cell growth in a cell viability assay.
# GAK = assay type: functional, cell-based, Homo sapiens;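 also: cell growth inhibition read out by a cell viability assay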
# Description: SANGER: Inhibition of human GAK cell growth in a cell viability assay.
# MOLT-16 = assay type: functional, cell-based, Homo sapiens;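 also: growth inhibition of human MOLT-16 cells, read out with a cell viability assay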
# Description: SANGER: Inhibition of human MOLT-16 cell growth in a cell viability assay.
# BV-173 = assay type: functional, cell-based, Homo sapiens
# Description: SANGER: Inhibition of human BV-173 cell growth in a cell viability assay.
# U-87 MG = assay type: functional, cell-based, Homo sapiens, U-87MG ATCC;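 also: growth inhibition of the cells measured with a viability assay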
# Description: SANGER: Inhibition of human U-87-MG cell growth in a cell viability assay.
# NEC8 = assay type: functional, cell-based, Homo sapiens;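 also: growth inhibition of human NEC8 cells, read out by a cell viability assay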
# Description: SANGER: Inhibition of human NEC8 cell growth in a cell viability assay.
# QIMR-WIL = assay type: functional, cell-based, Homo sapiens;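 also: growth inhibition of QIMR-WIL cells, read out with a cell viability assay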
# Description: SANGER: Inhibition of human QIMR-WIL cell growth in a cell viability assay.
# ES5 = assay type: functional, cell-based, Homo sapiens;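 also: growth inhibition of human ES5 cells, read out by a cell viability assay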
# Description: SANGER: Inhibition of human ES5 cell growth in a cell viability assay.
# OCUB-M = assay type: functional, cell-based; details: Homo sapiens;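 also: growth inhibition of the cancer cell line, read out through a cell viability assay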
# Description: SANGER: Inhibition of human OCUB-M cell growth in a cell viability assay.
# RH-1 = assay type: functional, cell-based, Homo sapiens;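 also: growth inhibition of human RH-1 cells, read out with a cell viability assay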
# Description: SANGER: Inhibition of human RH-1 cell growth in a cell viability assay.
# L-363 = assay type: functional, cell-based, Homo sapiens
# Description: SANGER: Inhibition of human L-363 cell growth in a cell viability assay.
# OCI-AML2 = assay type: functional, cell-based, Homo sapiens;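 also: growth inhibition of OCI-AML2 cells, read out with a cell viability assay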
# Description: SANGER: Inhibition of human OCI-AML2 cell growth in a cell viability assay.
# L-428 = assay type: functional, cell-based, Homo sapiens
# Description: SANGER: Inhibition of human L-428 cell growth in a cell viability assay.
# GR-ST = assay type: functional, cell-based, Homo sapiens
# Description: SANGER: Inhibition of human GR-ST cell growth in a cell viability assay.
# CCRF-CEM = assay type: functional, cell-based, Homo sapiens;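 also: inhibition of CCRF-CEM cell growth, measured by a cell viability assay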
# Description: SANGER: Inhibition of human CCRF-CEM cell growth in a cell viability assay.
# OVCAR-4 = assay type: functional, cell-based, Homo sapiens;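 also: growth inhibition of human OVCAR-4 cells, measured with a cell viability assay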
# Description: SANGER: Inhibition of human OVCAR-4 cell growth in a cell viability assay.
# RXF 393 = assay type: functional, cell-based, Homo sapiens;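 also: growth inhibition of human RXF 393 cells, read out with a cell viability assay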
# Description: SANGER: Inhibition of human RXF393 cell growth in a cell viability assay.
# NB6 = assay type: functional, cell-based, Homo sapiens;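 also: growth inhibition of NB6 cells, read out by a cell viability assay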
# Description: SANGER: Inhibition of human NB6 cell growth in a cell viability assay.
# NCI-H1299 = assay type: functional, cell-based; details: Homo sapiens;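 also: growth inhibition of human NCI-H1299 cells, read out by a cell viability assay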
# Description: SANGER: Inhibition of human NCI-H1299 cell growth in a cell viability assay.
# NB5 = assay type: functional, cell-based, Homo sapiens;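 also: growth inhibition of NB5 cells, read out as cell viability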
# Description: SANGER: Inhibition of human NB5 cell growth in a cell viability assay.
# SK-NEP-1 = assay type: functional, cell-based, Homo sapiens;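 also: growth inhibition of human SK-NEP-1 cells, read out by a cell viability assay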
# Description: SANGER: Inhibition of human SK-NEP-1 cell growth in a cell viability assay.
# LB771-HNC = assay type: functional, cell-based; details: Homo sapiens;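 also: growth inhibition of LB771-HNC human cells, read out with a cell viability assay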
# Description: SANGER: Inhibition of human LB771-HNC cell growth in a cell viability assay.
smiles,measurement,setting,value
COc1ccc(-c2cc3nccn3c(Nc3ncccc3C(N)=O)n2)cc1OC,pIC50,"GI-1; Homo sapiens, GI-1",5.27
same,pIC50,"NCI-H720; Homo sapiens, NCI-H720",< 5.10
same,pIC50,LXF-289 cell line,< 5.10
same,pIC50,"8-MG-BA; Homo sapiens, 8-MG-BA",< 5.10
same,pIC50,"KP-N-YS; Homo sapiens, KP-N-YS",5.15
same,pIC50,"NCI-H1092; Homo sapiens, NCI-H1092",< 5.10
same,pIC50,"SCC-15; Homo sapiens, SCC-15",< 5.10
same,pIC50,"HCC2157; Homo sapiens, HCC2157",< 5.10
same,pIC50,"SW 962; Homo sapiens, SW 962",< 5.10
same,pIC50,"SK-PN-DW; Homo sapiens, SK-PN-DW",5.27
same,pIC50,"TE-5; Homo sapiens, TE-5",5.26
same,pIC50,"SJSA-1; Homo sapiens, SJSA-1",5.42
same,pIC50,"EW-18; Homo sapiens, EW-18",5.34
same,pIC50,"HCC1187; Homo sapiens, HCC1187",< 5.10
same,pIC50,"SNB-75; Homo sapiens, SNB-75",< 5.10
same,pIC50,"NCI-H226; Homo sapiens, NCI-H226",5.39
same,pIC50,"NCI-H1355; Homo sapiens, NCI-H1355",5.46
same,pIC50,"SCH; Homo sapiens, SCH",< 5.10
same,pIC50,"LB1047-RCC; Homo sapiens, LB1047-RCC",6.13
same,pIC50,no-10; Homo sapiens,< 5.10
same,pIC50,"MV4-11; Homo sapiens, MV4-11",> 7.51
same,pIC50,"MHH-NB-11; Homo sapiens, MHH-NB-11",< 5.10
same,pIC50,"TE-9; Homo sapiens, TE-9",< 5.10
same,pIC50,NCI-N87,< 5.10
same,pIC50,"HAL-01; Homo sapiens, HAL-01",< 5.10
same,pIC50,"NCI-H526; Homo sapiens, NCI-H526",5.28
same,pIC50,"PSN1; Homo sapiens, PSN1",6.05
same,pIC50,"TGBC1TKB; Homo sapiens, TGBC1TKB",< 5.10
same,pIC50,"GAK; Homo sapiens, GAK",< 5.10
same,pIC50,"MOLT-16; Homo sapiens, MOLT-16",6.24
same,pIC50,"BV-173; Homo sapiens, BV-173",< 5.10
same,pIC50,"U-87 MG; Homo sapiens, U-87 MG",< 5.10
same,pIC50,"NEC8; Homo sapiens, NEC8",5.11
same,pIC50,"QIMR-WIL; Homo sapiens, QIMR-WIL",6.24
same,pIC50,"ES5; Homo sapiens, ES5",< 5.10
same,pIC50,OCUB-M,5.39
same,pIC50,"RH-1; Homo sapiens, RH-1",5.33
same,pIC50,"L-363; Homo sapiens, L-363",5.53
same,pIC50,"OCI-AML2; Homo sapiens, OCI-AML2",5.35
same,pIC50,"L-428; Homo sapiens, L-428",< 5.10
same,pIC50,"GR-ST; Homo sapiens, GR-ST",5.43
same,pIC50,"CCRF-CEM; Homo sapiens, CCRF-CEM",5.70
same,pIC50,"OVCAR-4; Homo sapiens, OVCAR-4",< 5.10
same,pIC50,"RXF 393; Homo sapiens, RXF 393",5.17
same,pIC50,"NB6; Homo sapiens, NB6",< 5.10
same,pIC50,NCI-H1299,< 5.10
same,pIC50,"NB5; Homo sapiens, NB5",< 5.10
same,pIC50,"SK-NEP-1; Homo sapiens, SK-NEP-1",5.34
same,pIC50,LB771-HNC,< 5.10
CC(C)C[C@@H](C=O)NC(=O)[C@H](CC(C)C)NC(=O)[C@H](CC(C)C)NC(=O)OCc1ccccc1 [MG-132] (Cbz-Leu-Leu-Leu-aldehyde),pIC50,GI-1; gi-1,< 6.00
same,pIC50,NCI-H720; nci-h720,< 6.00
same,pIC50,8-MG-BA; 8-mg-ba,6.40 and < 6.00
same,pIC50,KP-N-YS; kp-n-ys,< 6.00
same,pIC50,NCI-H1092; nci-h1092,6.41 and < 6.00
same,pIC50,SCC-15; scc-15,< 6.00
same,pIC50,HCC2157; hcc2157,< 6.00
same,pIC50,SW 962; sw 962,< 6.00
same,pIC50,SK-PN-DW; sk-pn-dw,6.63 and < 6.00
same,pIC50,TE-5; te-5,6.85 and < 6.00
same,pIC50,"SJSA-1; Homo sapiens, SJSA-1",< 6.00
same,pIC50,SJSA-1; sjsa-1,< 6.00
same,pIC50,EW-18; ew-18,< 6.00
same,pIC50,HCC1187; hcc1187,< 6.00
same,pIC50,SNB-75; snb-75,< 6.00
same,pIC50,"NCI-H226; Homo sapiens, NCI-H226",< 6.00
same,pIC50,NCI-H226; nci-h226,< 6.00
same,pIC50,NCI-H1355; nci-h1355,6.16 and < 6.00
same,pIC50,SCH; sch,< 6.00
same,pIC50,"LB1047-RCC; Homo sapiens, LB1047-RCC",< 6.00
same,pIC50,LB1047-RCC; lb1047-rcc,< 6.00
same,pIC50,no-10,7.05 and 6.22
same,pIC50,MV4-11; mv-4-11,< 6.00
same,pIC50,"MHH-NB-11; Homo sapiens, MHH-NB-11",< 6.00
same,pIC50,MHH-NB-11; mhh-nb-11,< 6.00
same,pIC50,TE-9; te-9,6.21 and < 6.00
same,pIC50,NCI-N87,< 6.00
same,pIC50,HAL-01; hal-01,< 6.00
same,pIC50,NCI-H526; nci-h526,< 6.00
same,pIC50,PSN1; psn1,< 6.00
same,pIC50,TGBC1TKB; tgbc1tkb,< 6.00 and 6.16
same,pIC50,GAK; gak,6.69 and < 6.00
same,pIC50,MOLT-16; molt-16,6.53 and < 6.00
same,pIC50,BV-173; bv-173,< 6.00
same,pIC50,"U-87 MG; Homo sapiens, U-87 MG",< 6.00
same,pIC50,U-87 MG; u-87mg atcc,< 6.00
same,pIC50,NEC8; nec8,6.92 and < 6.00
same,pIC50,QIMR-WIL; qimr-wil,< 6.00
same,pIC50,ES5; es5,< 6.00
same,pIC50,RH-1; rh-1,< 6.00
same,pIC50,"L-363; Homo sapiens, L-363",< 6.00
same,pIC50,L-363; l-363,< 6.00
same,pIC50,OCI-AML2; oci-aml2,< 6.00
same,pIC50,"L-428; Homo sapiens, L-428",< 6.00
same,pIC50,L-428; l-428,< 6.00
same,pIC50,GR-ST; gr-st,< 6.00
same,pIC50,CCRF-CEM; ccrf-cem,6.32 and < 6.00
same,pIC50,OVCAR-4; ovcar-4,6.96 and < 6.00
same,pIC50,RXF 393; rxf 393,6.60 and < 6.00
same,pIC50,NB6; nb6,< 6.00
same,pIC50,NCI-H1299,< 6.00
same,pIC50,NB5; nb5,< 6.00
same,pIC50,SK-NEP-1; sk-nep-1,< 6.00
